Laboratory results taken from US20060188566A1, “Nanoparticulate formulations of docetaxel and analogues thereof” (Elan Pharma International Limited, priority 2005, published 2006).

Columns and labels:
microtubules = conditions: compared with docetaxel; cited from earlier work
[1] = Particle size of unmilled (conventional, non-nanoparticulate) docetaxel; format: physicochemical
From the text: Unmilled trihydrate docetaxel has a mean particle size of 61,610 nm, with a D50 of 51,060 nm and a D90 of 119,690 nm.

[2] = cited from earlier work
[3] = system: plasma proteins, primarily albumin, α1-acid glycoproteins, and lipoproteins; conditions: in vitro; cited from earlier work
[4] = cited from earlier work; remark: listed apart in the source
[5] = system: COX-2 expression in human monocytes; conditions: human monocytes / human cells; cited from earlier work
mice = conditions: mouse, in vivo, iv
Procedure: The purpose of this experiment was to determine the maximum tolerated dose of a nanoparticulate docetaxel formulation.
To evaluate and characterize the acute toxicity of nanoparticulate docetaxel formulations, two nanoparticulate dispersions were utilized.
Both nanoparticulate docetaxel formulations were administered intravenously at various doses to mice.
The commercially available non-nanoparticulate docetaxel product, TAXOTERE®, was also tested in parallel with the nanoparticulate docetaxel formulations.

[6] = system: COX-2 expression in murine cells; conditions: cited from earlier work
[7] = phase I trial; cited from earlier work
[8] = IV administration of a 100-mg/m^2 dose, SD=0.8
[9] = intravenous doses of 70 mg/m^2 to 115 mg/m^2, 3-compartment model, TAXOTERE®

CC(=O)OC12COC1CC(O)C1(C)C(=O)C(O)C3=C(C)C(OC(=O)C(O)C(NC(=O)OC(C)(C)C)c4ccccc4)CC(O)(C(OC(=O)C4CCCCC4)C21)C3(C)C (stereo not drawn) [2-(hexahydro)docetaxel]
inhibitory activity for microtubule disassembly (microtubules): strong inhibitory activity for microtubule disassembly equivalent to docetaxel

CC(=O)OC12COC1CC(O)C1(C)C(=O)C(O)C3=C(C)C(OC(=O)C(O)C(NC(=O)OC(C)(C)C)C4CCCCC4)CC(O)(C(OC(=O)c4ccccc4)C21)C3(C)C (stereo not drawn) [3′-dephenyl-3′-cyclohexyldocetaxel]
inhibitory activity for microtubule disassembly (microtubules): strong inhibitory activity for microtubule disassembly equivalent to docetaxel

CC(=O)O[C@@]12CO[C@@H]1C[C@H](O)[C@@]1(C)C(=O)[C@H](O)C3=C(C)[C@@H](OC(=O)[C@H](O)[C@@H](NC(=O)OC(C)(C)C)c4ccccc4)C[C@@](O)([C@@H](OC(=O)c4ccccc4)[C@H]21)C3(C)C [Unmilled trihydrate docetaxel, docetaxel]
D50 [1]: 51,060 nm
D90 [1]: 119,690 nm
mean particle size [1]: 61,610 nm

CC(=O)O[C@@]12CO[C@@H]1C[C@H](O)[C@@]1(C)C(=O)[C@H](O)C3=C(C)[C@@H](OC(=O)[C@H](O)[C@@H](NC(=O)OC(C)(C)C)c4ccccc4)C[C@@](O)([C@@H](OC(=O)c4ccccc4)[C@H]21)C3(C)C [docetaxel, (2R, 3S)-N-carboxy-3-phenylisoserine, N-tert-butyl ester, 13-ester with 5β-20-epoxy-1, 2α, 4, 7β, 10β, 13α-hexahydroxytax-11-en-9-one 4-acetate 2-benzoate, trihydrate]
AUC [2, 8]: 4600 ng·h/mL
mean peak plasma level [2, 8]: 3.7 µg/mL
steady-state volume of distribution (mean) ([2]; cancer patients, IV): 113 L
mean population α half-life [2, 9]: 4 min
mean population β half-life [2, 9]: 36 min
mean population γ half-life [2, 9]: 666 min
bound to plasma proteins [3]: approximately 94%
solubility in water (in words) [4]: practically insoluble in water
COX-2 expression induction [5]: induces COX-2 expression only in human monocytes

CC(=O)O[C@@]12CO[C@@H]1C[C@H](O)[C@@]1(C)C(=O)[C@H](O)C3=C(C)[C@@H](OC(=O)[C@H](O)[C@@H](NC(=O)OC(C)(C)C)c4ccccc4)C[C@@](O)([C@@H](OC(=O)c4ccccc4)[C@H]21)C3(C)C [unmilled docetaxel (anhydrous), docetaxel]
D50 [1]: 175,530 nm
D90 [1]: 435,810 nm
mean particle size [1]: 212,060 nm

TAXOTERE®
maximum tolerated dose (MD) (mice): 40 mg/kg

paclitaxel
COX-2 expression induction [5]: paclitaxel-induced COX-2 expression
COX-2 expression induction [6]: paclitaxel-induced COX-2 expression
pharmacokinetic profile (linearity) [7]: nonlinear pharmacokinetics
